Laboratory results published in ChEMBL document CHEMBL1201862, “PubChem BioAssay data set” (2004).
Activity calls are given as the source filed them.

What was measured:
Cytochrome P450 2D6 = Cytochrome P450 2D6 (Homo sapiens, UniProt P10635);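 note: CYP2D6 member of a cytochrome P450 panel assay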
cells = assay type: functional
[1] = target: T1, Zinc finger protein mex-5 (Caenorhabditis elegans, UniProt Q9XUB2); experiment: potency of MEX-5 RNA-binding blockers – biochemical, C. elegans, fluorescence polarization, dose response (AID 1960)
T1 sequence (Q9XUB2 whole entry): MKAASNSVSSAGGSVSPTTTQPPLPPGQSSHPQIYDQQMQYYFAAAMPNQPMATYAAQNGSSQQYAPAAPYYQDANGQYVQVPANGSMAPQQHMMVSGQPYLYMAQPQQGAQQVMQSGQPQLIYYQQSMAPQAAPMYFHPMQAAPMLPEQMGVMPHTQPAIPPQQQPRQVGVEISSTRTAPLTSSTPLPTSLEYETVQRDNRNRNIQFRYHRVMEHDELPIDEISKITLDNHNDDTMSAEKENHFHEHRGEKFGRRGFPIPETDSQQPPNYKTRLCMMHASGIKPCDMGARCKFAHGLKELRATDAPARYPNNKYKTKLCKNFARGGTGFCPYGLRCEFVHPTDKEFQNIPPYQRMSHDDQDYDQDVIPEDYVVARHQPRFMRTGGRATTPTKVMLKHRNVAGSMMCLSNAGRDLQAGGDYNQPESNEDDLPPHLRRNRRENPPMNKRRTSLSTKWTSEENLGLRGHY

[2] = target: T2, RNA-binding protein pos-1 (Caenorhabditis elegans, UniProt G5EF15); experiment: disruptors of C. elegans POS-1 RNA interaction – biochemical, fluorescence polarization, dose response (AID 1964);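 note: purified POS-1 fused to maltose binding protein made in E. coli; potency of compounds blocking POS-1 binding to fluorescent RNA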
T2 sequence (G5EF15 whole entry): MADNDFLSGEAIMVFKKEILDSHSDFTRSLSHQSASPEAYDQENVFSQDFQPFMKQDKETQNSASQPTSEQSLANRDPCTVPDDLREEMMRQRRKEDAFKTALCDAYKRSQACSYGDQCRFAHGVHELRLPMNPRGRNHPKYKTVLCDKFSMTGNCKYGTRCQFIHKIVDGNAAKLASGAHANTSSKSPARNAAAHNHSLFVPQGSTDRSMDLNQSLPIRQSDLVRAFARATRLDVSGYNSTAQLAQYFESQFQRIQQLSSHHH

[3] = NIH-3T3 fibroblast cytotoxicity, dose response, cytotoxicity control, cell-based, fluorescence, Alamar Blue, secondary assay (AID 2327); assay type: functional;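 note: NIH-3T3 mouse fibroblasts cultured with fluconazole at 8 µg/mL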
[4] = fluconazole-exposed Candida albicans growth modulators – fluorescence, retest, confirmation (AID 2467); assay type: functional, cell-based
Streptokinase A = target: T3, Streptokinase A (Streptococcus pyogenes serotype M1, UniProt P10520); experiment: viability-normalized secreted streptokinase activity reduction – plasminogen activation absorbance, OD405, dose response (AID 1914); assay type: functional, Streptococcus pyogenes M1 GAS;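 note: secreted streptokinase activity via plasminogen activation per viability signal from cell pellet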
T3 sequence (P10520 whole entry): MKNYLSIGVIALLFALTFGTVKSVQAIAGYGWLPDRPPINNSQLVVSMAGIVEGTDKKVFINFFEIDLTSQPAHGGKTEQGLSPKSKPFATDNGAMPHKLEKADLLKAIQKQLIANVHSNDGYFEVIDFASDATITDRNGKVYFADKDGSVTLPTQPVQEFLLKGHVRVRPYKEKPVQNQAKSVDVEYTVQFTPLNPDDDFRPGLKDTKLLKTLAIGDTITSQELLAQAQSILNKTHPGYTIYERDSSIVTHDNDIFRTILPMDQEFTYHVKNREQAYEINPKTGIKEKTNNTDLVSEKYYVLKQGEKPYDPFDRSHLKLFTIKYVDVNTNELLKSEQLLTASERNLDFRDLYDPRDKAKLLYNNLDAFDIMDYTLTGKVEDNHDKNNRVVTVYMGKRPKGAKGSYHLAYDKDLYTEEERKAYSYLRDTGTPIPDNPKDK

[5] = tested on: Streptococcus sp. 'group A'; experiment: Streptococcus pyogenes SK(-)GAS viability under kanamycin – luminescence, BacTiterGlo, confirmation, counter-screen for streptokinase expression inhibitor project, dose response (AID 1900); assay type: functional, organism-based
Streptococcus = experiment: GAS UMAA2166 growth inhibition – luminescence, BacTiterGlo, counter-screen for streptokinase expression inhibitor project, dose response (AID 1915); assay type: functional, organism-based;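 note: potency for reduction of bacterial viability or growth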
Cytochrome P450 1A2 = target: T4, Cytochrome P450 1A2 (Homo sapiens, UniProt P05177);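 note: PubChem cytochrome P450 panel assay, CYP1A2 panel member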
T4 sequence (P05177 whole entry): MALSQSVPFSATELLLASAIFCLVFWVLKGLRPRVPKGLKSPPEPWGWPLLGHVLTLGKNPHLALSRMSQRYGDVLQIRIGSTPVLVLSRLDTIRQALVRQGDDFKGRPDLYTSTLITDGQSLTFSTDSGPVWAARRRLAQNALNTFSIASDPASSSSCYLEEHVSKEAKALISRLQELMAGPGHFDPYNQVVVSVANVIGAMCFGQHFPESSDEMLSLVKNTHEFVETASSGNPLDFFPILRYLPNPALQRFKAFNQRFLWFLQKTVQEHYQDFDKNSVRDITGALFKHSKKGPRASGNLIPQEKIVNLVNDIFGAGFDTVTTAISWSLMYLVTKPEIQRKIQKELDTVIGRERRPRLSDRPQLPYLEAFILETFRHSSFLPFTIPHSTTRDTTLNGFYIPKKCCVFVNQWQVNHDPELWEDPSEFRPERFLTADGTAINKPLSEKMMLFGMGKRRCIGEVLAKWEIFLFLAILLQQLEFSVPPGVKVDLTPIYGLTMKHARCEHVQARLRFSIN

[6] = target: T5, Rac GTPase-activating protein 1 (Homo sapiens, UniProt Q9H0H5); experiment: blockers of MgcRacGAP-driven Rac1 GTP hydrolysis – biochemical, ADP Hunter fluorescence, primary and confirmatory, confirmation (AID 624330); assay type: functional
T5 sequence (Q9H0H5 whole entry): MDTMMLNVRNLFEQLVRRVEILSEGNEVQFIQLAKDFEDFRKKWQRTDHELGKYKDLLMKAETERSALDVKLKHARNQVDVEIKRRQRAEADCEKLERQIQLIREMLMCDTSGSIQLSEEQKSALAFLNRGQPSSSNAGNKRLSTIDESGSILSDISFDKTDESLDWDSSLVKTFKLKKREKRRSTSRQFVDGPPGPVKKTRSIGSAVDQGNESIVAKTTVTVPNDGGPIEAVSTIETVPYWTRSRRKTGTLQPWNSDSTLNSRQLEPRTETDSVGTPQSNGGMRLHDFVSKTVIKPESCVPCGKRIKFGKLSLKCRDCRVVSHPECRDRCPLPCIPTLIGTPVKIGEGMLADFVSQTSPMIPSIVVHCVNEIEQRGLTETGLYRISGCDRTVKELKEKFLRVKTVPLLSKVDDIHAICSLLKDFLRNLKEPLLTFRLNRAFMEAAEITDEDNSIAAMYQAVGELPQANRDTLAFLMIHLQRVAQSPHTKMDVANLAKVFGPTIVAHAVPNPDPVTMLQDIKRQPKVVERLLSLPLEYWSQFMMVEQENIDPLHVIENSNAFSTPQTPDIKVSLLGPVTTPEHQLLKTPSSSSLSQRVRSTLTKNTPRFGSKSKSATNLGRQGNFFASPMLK

[7] = NIH3T3 cell viability loss – ATP luminescence, mouse fibroblasts, counter-screen, dose response (AID 2010); assay type: functional, cell-based;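 note: cells exposed to compound for about 90 hours before reading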
[8] = Trypanosoma cruzi growth suppression in host cells – NIH3T3 host cells, beta-gal luminescence, confirmation (AID 2044); assay type: functional, cell-based;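 note: intracellular parasites grown in NIH/3T3 mouse fibroblasts as host cells; luminescent beta-galactosidase reporter signal from transgenic T. cruzi replicating inside host cells; inhibitors lower the luminescence signal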
[9] = P. falciparum Dd2 growth inhibitors, dose response, SYBR Green, cherry-picked samples (AID 1159567); assay type: functional, cell-based
Cytochrome P450 2C19 = Cytochrome P450 2C19 (Homo sapiens, UniProt P33261); experiment: Cytochrome panel assay with activity outcomes. Panel member name: p450-cyp2c19 Compounds with AC50 equal or less than 10 uM are considered active; assay type: functional; details: read-out: AC50
Cytochrome P450 3A4 = Cytochrome P450 3A4 (Homo sapiens, UniProt P08684);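 note: CYP3A4 tested as one member of a cytochrome P450 panel screen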
Cytochrome P450 3A4, sequence (P08684 whole entry): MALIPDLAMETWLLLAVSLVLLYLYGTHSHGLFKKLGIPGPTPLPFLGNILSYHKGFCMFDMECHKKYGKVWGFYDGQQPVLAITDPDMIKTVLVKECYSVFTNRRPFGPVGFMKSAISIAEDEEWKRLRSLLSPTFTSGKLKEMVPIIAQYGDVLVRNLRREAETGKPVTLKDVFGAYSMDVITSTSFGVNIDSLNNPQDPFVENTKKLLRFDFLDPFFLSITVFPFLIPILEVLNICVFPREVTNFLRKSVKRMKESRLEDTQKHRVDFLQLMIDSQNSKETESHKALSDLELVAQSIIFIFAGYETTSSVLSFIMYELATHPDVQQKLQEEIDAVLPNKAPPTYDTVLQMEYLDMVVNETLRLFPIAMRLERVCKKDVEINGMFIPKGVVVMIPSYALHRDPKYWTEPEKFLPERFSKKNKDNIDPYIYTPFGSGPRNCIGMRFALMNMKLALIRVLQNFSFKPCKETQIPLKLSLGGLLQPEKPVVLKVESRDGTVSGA

Cytochrome P450 2D6, sequence (P10635 whole entry): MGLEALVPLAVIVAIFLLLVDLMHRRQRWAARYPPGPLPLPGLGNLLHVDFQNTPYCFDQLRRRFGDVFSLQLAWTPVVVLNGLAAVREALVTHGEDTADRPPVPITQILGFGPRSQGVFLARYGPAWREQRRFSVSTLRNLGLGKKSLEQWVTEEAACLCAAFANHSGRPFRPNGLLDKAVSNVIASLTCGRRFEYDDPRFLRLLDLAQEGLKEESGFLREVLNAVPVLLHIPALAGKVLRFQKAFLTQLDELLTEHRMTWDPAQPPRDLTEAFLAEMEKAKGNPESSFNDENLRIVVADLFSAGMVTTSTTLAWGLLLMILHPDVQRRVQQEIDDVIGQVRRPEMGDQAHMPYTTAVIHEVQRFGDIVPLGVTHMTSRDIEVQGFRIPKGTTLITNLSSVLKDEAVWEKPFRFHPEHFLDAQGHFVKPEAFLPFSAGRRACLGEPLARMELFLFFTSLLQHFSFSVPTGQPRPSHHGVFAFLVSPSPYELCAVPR
Cytochrome P450 2C19, sequence (P33261 whole entry): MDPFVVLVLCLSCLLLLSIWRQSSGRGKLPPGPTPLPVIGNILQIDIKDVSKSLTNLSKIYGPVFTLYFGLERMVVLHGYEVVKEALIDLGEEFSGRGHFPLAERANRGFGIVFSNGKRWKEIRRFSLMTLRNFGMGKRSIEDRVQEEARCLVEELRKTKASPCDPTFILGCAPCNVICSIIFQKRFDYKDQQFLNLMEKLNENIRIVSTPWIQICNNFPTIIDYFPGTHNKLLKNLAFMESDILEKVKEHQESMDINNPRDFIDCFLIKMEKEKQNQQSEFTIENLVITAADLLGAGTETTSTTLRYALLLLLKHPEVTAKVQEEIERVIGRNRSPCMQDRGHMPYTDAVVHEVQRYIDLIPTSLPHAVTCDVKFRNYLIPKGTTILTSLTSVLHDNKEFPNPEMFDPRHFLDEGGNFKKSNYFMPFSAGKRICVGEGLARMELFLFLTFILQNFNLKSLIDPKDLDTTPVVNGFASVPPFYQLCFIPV

With `CN1CC[C@@]2(CCCN(C(=O)c3csnn3)C2)C1` the AC50 (Cytochrome P450 2D6) was 39.8 µM (inconclusive).

In the case of `O=C(OCC(=O)N1CCc2ccccc21)c1ccc([N+](=O)[O-])cc1`, the IC50 (cells) is reported as 7.65 µM (active).

With `N#CC1=C(N)OC2=C(C(=O)CCC2)[C@]12C(=O)N(CC(N)=O)c1ccccc12` the EC50 [1] was > 300 µM (not active) and the EC50 [2] was > 300 µM (not active).

In the case of `COc1cccc(/C=N/NC(=O)c2cc(-c3cccn3C)[nH]n2)c1O`, the EC50 [3] is reported as 23.5 µM (inconclusive) and the EC50 [4] is reported as 2.95 µM (active).

With `O=C1CCC/C1=c1\s/c(=C\c2cccnc2)c(=O)n1-c1ccccc1` the EC50 [1] was 42 µM (active) and the EC50 [2] was > 300 µM (not active).

In the case of `Oc1c(C(Nc2cccc(C(F)(F)F)c2)c2cccnc2)ccc2cccnc12` (centres undefined), the EC50 [3] is reported as > 150 µM (inactive), the EC50 [4] is reported as > 38 µM (not active) and the EC50 (Streptokinase A) is reported as > 150 µM (not active). The EC50 [5] was 1.71 µM (active) and the EC50 (Streptococcus) was 15.6 µM (active).

With `Cc1cccc(NC(=O)N(Cc2nc(O)c3ccccc3n2)C2CCCC2)c1` the AC50 (Cytochrome P450 2D6) was 39.8 µM (inconclusive).

With `N#C/C(=C/c1ccc(N2CCCC2)c([N+](=O)[O-])c1)c1nc2ccccc2[nH]1` the AC50 (Cytochrome P450 1A2) was 3.55 µM (inconclusive).

For `COc1ccc(NCc2cc(O)nc3ccccc23)cc1`, the IC50 [6] was 50.5 µM (active).

In the case of `CC1COc2ccccc2N1S(=O)(=O)c1ccccc1` (centres undefined), the EC50 [3] is reported as > 150 µM (inconclusive).

In the case of `CCCCn1c(=O)[nH]c(=O)c2c1nc(-c1ccc(-c3ccccc3Br)o1)n2CCOC`, the EC50 [1] is reported as > 300 µM (not active) and the EC50 [2] is reported as > 300 µM (not active).

For `Clc1cccc(N/N=C/c2ccc(N3CCOCC3)cc2)c1`, the EC50 [7] was > 60 µM (not active), the EC50 [8] was 2.74 µM (active) and the AC50 (Cytochrome P450 2D6) was 7.08 µM (inconclusive).

In the case of `COc1cc2c(cc1C1C(C#N)=C(N)OC3=C1C(=O)CC(C)(C)C3)OCO2` (centres undefined), the EC50 [1] is reported as > 300 µM (not active) and the EC50 [2] is reported as > 300 µM (not active).

With `Cc1cccc(C(=O)NCCCNC(=O)c2cccc(C)c2)c1` the EC50 [1] was > 300 µM (not active) and the EC50 [2] was > 300 µM (not active).

For `CCCCNCC#CCOc1cc(C)ccc1C(C)C`, the IC50 [6] was 196 µM (active).

With `COCCOC(=O)c1c(C)oc2ccc(OC(=O)c3ccco3)cc12` the IC50 (cells) was > 50 µM (active).

In the case of `CCCc1cn([C@H]2C[C@@H]3O[C@H](CO)CC[C@@H]3O[C@@H]2CCc2ccc(-c3ccc(OC)cc3)cc2)nn1`, the AC50 [9] is reported as 4.34 µM (active).

For `Cn1ccnc1SCC(=O)Nc1sccc1C#N`, the AC50 (Cytochrome P450 2D6) was 25.1 µM (inconclusive) and the AC50 (Cytochrome P450 2C19) was 7.08 µM (inconclusive).

For `COc1ccccc1-c1ccc2ncnc(NCCN3CCOCC3)c2c1`, the AC50 (Cytochrome P450 2D6) was 39.8 µM (inconclusive).

With `O=C(CNS(=O)(=O)c1ccc(Br)s1)N1CCC2(CC1)OCCO2` the AC50 (Cytochrome P450 1A2) was 15.8 µM (inconclusive) and the AC50 (Cytochrome P450 3A4) was 25.1 µM (inconclusive).
